# According to publication PMC8881610 (Nature Communications, 2022):
# Where a chain is given by its changes, count along the chain named.
# Assays:
# Assay in all cases: cAMP accumulation assay (LANCE Ultra cAMP kit), GIPR WT, mutant or modified constructs
# Type in all cases: cell-based
# Parameters in all cases: acylated tirzepatide to the full-length or modified; Flag; expressed in transfected cells; host or cells: HEK293T
# GIPR [1] = molecular target: T1, GIPR (Homo sapiens, UniProt P48546, R370A); details: HEK-293T, GIPR R370A; HEK293T
# T1 sequence (P48546 22-466 R370A): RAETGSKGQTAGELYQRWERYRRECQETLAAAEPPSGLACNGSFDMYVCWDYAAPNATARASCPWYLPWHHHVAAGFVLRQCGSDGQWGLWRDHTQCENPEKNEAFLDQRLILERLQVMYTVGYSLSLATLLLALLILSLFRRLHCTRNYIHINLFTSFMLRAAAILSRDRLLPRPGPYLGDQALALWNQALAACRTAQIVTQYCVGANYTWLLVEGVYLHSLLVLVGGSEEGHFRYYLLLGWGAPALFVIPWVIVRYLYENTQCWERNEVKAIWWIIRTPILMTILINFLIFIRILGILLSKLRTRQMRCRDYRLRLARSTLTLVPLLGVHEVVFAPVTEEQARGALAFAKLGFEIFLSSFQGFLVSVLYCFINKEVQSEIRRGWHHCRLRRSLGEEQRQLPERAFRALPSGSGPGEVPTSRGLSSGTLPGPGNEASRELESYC
# Procedure, shortened: (§1)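 HEK293T cells transiently transfected with human GIPR WT or mutant constructs (pcDNA3.1), used after 24 h. The cells were stimulated with peptide agonists for 40 min at RT in HBSS with 5 mM HEPES, 0.1% BSA or casein, and 0.5 mM IBMX. cAMP was read by LANCE Ultra TR-FRET (Eu-cAMP tracer/ULight anti-cAMP, 1 h RT, 620/650 nm).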
# GIPR [2] = molecular target: T2, GIPR (Homo sapiens, UniProt P48546, Y141A); details: GIPR Y141A, HEK293T
# T2 sequence (P48546 22-466 Y141A): T1 sequence (P48546 22-466 R370A) with Y120A, A349R
# Procedure, shortened: as §1
# GIPR [3] = molecular target: T3, GIPR (Homo sapiens, UniProt P48546, Q30A); details: GIPR Q30A, HEK293T
# T3 sequence (P48546 22-466 Q30A): T1 sequence (P48546 22-466 R370A) with Q9A, A349R
# Procedure, shortened: as §1
# [4] = read-out: cAMP pEC50 (converted)
compound,measurement,setting,value
CCCCCCCCCCCCCCCC(=O)N[C@@H](CCC(=O)NCCCC[C@H](NC(=O)[C@H](CC(=O)O)NC(=O)[C@H](CO)NC(=O)[C@@H](NC(=O)[C@H](Cc1ccccc1)NC(=O)[C@@H](NC(=O)CNC(=O)[C@H](CCC(N)=O)NC(=O)C(C)(C)NC(=O)[C@@H](N)Cc1c[nH]cn1)[C@@H](C)O)[C@@H](C)O)C(=O)N[C@@H](CO)C(=O)N[C@@H](CCCCN)C(=O)N[C@@H](Cc1ccc(O)cc1)C(=O)N[C@@H](CC(C)C)C(=O)N[C@@H](CC(=O)O)C(=O)N[C@@H](CCC(=O)O)C(=O)N[C@@H](CCCNC(=N)N)C(=O)N[C@@H](C)C(=O)N[C@@H](C)C(=O)N[C@@H](CCC(N)=O)C(=O)N[C@@H](CC(=O)O)C(=O)N[C@@H](Cc1ccccc1)C(=O)N[C@H](C(=O)N[C@@H](CCC(N)=O)C(=O)N[C@@H](Cc1c[nH]c2ccccc12)C(=O)N[C@@H](CC(C)C)C(=O)N[C@@H](CC(C)C)C(=O)N[C@@H](CC(=O)O)C(=O)NCC(=O)NCC(=O)N1CCC[C@H]1C(=O)N[C@@H](CO)C(=O)N[C@@H](CO)C(=O)NCC(=O)N[C@@H](C)C(=O)N1CCC[C@H]1C(=O)N1CCC[C@H]1C(=O)N1CCC[C@H]1C(=O)N[C@@H](CO)C(N)=O)C(C)C)C(=O)O [Peptide 20],Emax,GIPR [1],71.5 ± 2.85%
same,EC50,GIPR [2]; [4],3.72 nM
same,Emax,GIPR [2]; HEK-293T,75.1 ± 1.79%
same,EC50,GIPR [3]; [4],0.0427 nM
same,Emax,GIPR [3]; HEK-293T,100 ± 1.79%
